Consider 6 molecules from ChEMBL document CHEMBL1201861, “Genomics of Drug Sensitity in Cancer screening data, Wellcome Trust Sanger Institute”.

pIC50: −log10 of the molar value. Where a SMILES comes first, the peptide text is derived from it. The star is where a group is joined. Cbz = O=C(OCc1ccccc1)*

For the first experiment, the system named is MFE-296. Kind of experiment: SANGER: Inhibition of human MFE-296 cell growth in a cell viability assay. It is filed as functional, cell-based.
Conditions: not given
By pIC50 is commonly meant the IC50 on a negative log10 scale, so that one unit is a factor of ten. A low value points to a large IC50. Regarding `OC[C@H](Cc1ccccc1)Nc1nc(Oc2ccc3c(c2)CCC3)nc2c1ncn2Cc1ccc(-c2ccccc2)cc1`, the pIC50 is < 4.99.

`C/C(=C\c1csc(C)n1)[C@@H]1C[C@@H]2O[C@]2(C)CCC[C@H](C)[C@H](O)[C@@H](C)C(=O)C(C)(C)[C@@H](O)CC(=O)O1` [PATUPILONE] had a pIC50 of 8.57.

The next experiment has as its system EW-7. Kind of experiment: SANGER: Inhibition of human EW-7 cell growth in a cell viability assay. It is filed as functional, cell-based.
Conditions: not given
Turning to `OC[C@H](Cc1ccccc1)Nc1nc(Oc2ccc3c(c2)CCC3)nc2c1ncn2Cc1ccc(-c2ccccc2)cc1`, the pIC50 is < 4.99.

In turn, `C/C(=C\c1csc(C)n1)[C@@H]1C[C@@H]2O[C@]2(C)CCC[C@H](C)[C@H](O)[C@@H](C)C(=O)C(C)(C)[C@@H](O)CC(=O)O1` [PATUPILONE] had a pIC50 of 8.65.

A further experiment concerns IPC-298. Kind of experiment: SANGER: Inhibition of human IPC-298 cell growth in a cell viability assay. The format is functional, cell-based.
Conditions: not given
In the case of `OC[C@H](Cc1ccccc1)Nc1nc(Oc2ccc3c(c2)CCC3)nc2c1ncn2Cc1ccc(-c2ccccc2)cc1`, the pIC50 is < 4.99.

For `C/C(=C\c1csc(C)n1)[C@@H]1C[C@@H]2O[C@]2(C)CCC[C@H](C)[C@H](O)[C@@H](C)C(=O)C(C)(C)[C@@H](O)CC(=O)O1` [PATUPILONE], the pIC50 is 7.66.

In another experiment the test system is RT-4. Kind of experiment: SANGER: Inhibition of human RT4 cell growth in a cell viability assay. It is filed as functional, cell-based.
Conditions: not given
Regarding `OC[C@H](Cc1ccccc1)Nc1nc(Oc2ccc3c(c2)CCC3)nc2c1ncn2Cc1ccc(-c2ccccc2)cc1`, the pIC50 was < 4.99.

`C/C(=C\c1csc(C)n1)[C@@H]1C[C@@H]2O[C@]2(C)CCC[C@H](C)[C@H](O)[C@@H](C)C(=O)C(C)(C)[C@@H](O)CC(=O)O1` [PATUPILONE]: the pIC50 was < 7.49.

Another experiment concerns EW-12. Kind of experiment: SANGER: Inhibition of human EW-12 cell growth in a cell viability assay. The format is functional, cell-based. The conditions noted are these: Homo sapiens, EW-12.
`C[C@@H](Oc1cc(-c2cnn(C3CCNCC3)c2)cnc1N)c1c(Cl)ccc(F)c1Cl` [CRIZOTINIB]: the pIC50 was < 5.70.

As for `COc1cc(N2CCC(N3CCN(C)CC3)CC2)ccc1Nc1ncc(Cl)c(Nc2ccccc2S(=O)(=O)C(C)C)n1` [TAE-684], the pIC50 is < 5.70.

In the case of `CC(C)C[C@H](NC(=O)[C@H](Cc1ccccc1)NC(=O)c1cnccn1)B(O)O` [BORTEZOMIB], the negative logarithm of the IC50 (pIC50) was < 7.70.

Staying with this experiment, now noted: ew-12.
On to `CC(C)C[C@@H](C=O)NC(=O)[C@H](CC(C)C)NC(=O)[C@H](CC(C)C)NC(=O)OCc1ccccc1` [MG-132] (Cbz-Leu-Leu-Leu-aldehyde), for which the negative-log IC50 (pIC50) is < 6.00.

The subject of another experiment is NCI-H1734. Nature of the experiment: cells. The format is functional, cell-based. The conditions noted are these: Homo sapiens.
Description: SANGER: Inhibition of human NCI-H1734 cell growth in a cell viability assay.
As to `OC[C@H](Cc1ccccc1)Nc1nc(Oc2ccc3c(c2)CCC3)nc2c1ncn2Cc1ccc(-c2ccccc2)cc1`, the pIC50 is < 4.99.

Consider `C/C(=C\c1csc(C)n1)[C@@H]1C[C@@H]2O[C@]2(C)CCC[C@H](C)[C@H](O)[C@@H](C)C(=O)C(C)(C)[C@@H](O)CC(=O)O1` [PATUPILONE], for which the pIC50 is 7.80.

A further experiment has as its system NCI-H2227. Nature of the experiment: cells. It is filed as functional, cell-based. The note with it: Homo sapiens.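 Note: growth inhibition of the human cell line, read out with a cell viability assay.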
Description: SANGER: Inhibition of human NCI-H2227 cell growth in a cell viability assay.
Regarding `OC[C@H](Cc1ccccc1)Nc1nc(Oc2ccc3c(c2)CCC3)nc2c1ncn2Cc1ccc(-c2ccccc2)cc1`, the pIC50 is < 4.99.

Turning to `C/C(=C\c1csc(C)n1)[C@@H]1C[C@@H]2O[C@]2(C)CCC[C@H](C)[C@H](O)[C@@H](C)C(=O)C(C)(C)[C@@H](O)CC(=O)O1` [PATUPILONE], the pIC50 was < 7.49.

Take `CC(C)C[C@@H](C=O)NC(=O)[C@H](CC(C)C)NC(=O)[C@H](CC(C)C)NC(=O)OCc1ccccc1` [MG-132] (Cbz-Leu-Leu-Leu-aldehyde): the pIC50 was < 6.00.

In the case of `CC(C)C[C@H](NC(=O)[C@H](Cc1ccccc1)NC(=O)c1cnccn1)B(O)O` [BORTEZOMIB], the pIC50 is < 7.70.

For a further experiment, the system named is NCI-H1618. Nature of the experiment: cells. The format is functional, cell-based. The conditions noted are these: Homo sapiens.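 Note: growth inhibition of human NCI-H1618 cells, measured by a cell viability assay.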
Description: SANGER: Inhibition of human NCI-H1618 cell growth in a cell viability assay.
On to `OC[C@H](Cc1ccccc1)Nc1nc(Oc2ccc3c(c2)CCC3)nc2c1ncn2Cc1ccc(-c2ccccc2)cc1`, for which the pIC50 was < 4.99.

Consider `C/C(=C\c1csc(C)n1)[C@@H]1C[C@@H]2O[C@]2(C)CCC[C@H](C)[C@H](O)[C@@H](C)C(=O)C(C)(C)[C@@H](O)CC(=O)O1` [PATUPILONE], for which the pIC50 was 8.12.

For another experiment, the system named is NCI-H838. Kind of experiment: cells. The format is functional, cell-based. The note with it: Homo sapiens.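 Note: growth inhibition of human NCI-H838 cells, read out by a cell viability assay.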
Description: SANGER: Inhibition of human NCI-H838 cell growth in a cell viability assay.
`OC[C@H](Cc1ccccc1)Nc1nc(Oc2ccc3c(c2)CCC3)nc2c1ncn2Cc1ccc(-c2ccccc2)cc1`: the pIC50 is < 4.99.

On to `C/C(=C\c1csc(C)n1)[C@@H]1C[C@@H]2O[C@]2(C)CCC[C@H](C)[C@H](O)[C@@H](C)C(=O)C(C)(C)[C@@H](O)CC(=O)O1` [PATUPILONE], for which the pIC50 is 7.93.

In a further experiment the test system is TC-YIK. Kind of experiment: SANGER: Inhibition of human TC-YIK cell growth in a cell viability assay.
Conditions: not given
The format is functional, cell-based.
In the case of `C[C@@H](Oc1cc(-c2cnn(C3CCNCC3)c2)cnc1N)c1c(Cl)ccc(F)c1Cl` [CRIZOTINIB], the pIC50 is < 5.70.

With `COc1cc(N2CCC(N3CCN(C)CC3)CC2)ccc1Nc1ncc(Cl)c(Nc2ccccc2S(=O)(=O)C(C)C)n1` [TAE-684], the pIC50 is < 5.70.

On to `CC(C)C[C@@H](C=O)NC(=O)[C@H](CC(C)C)NC(=O)[C@H](CC(C)C)NC(=O)OCc1ccccc1` [MG-132] (Cbz-Leu-Leu-Leu-aldehyde), for which the pIC50 is < 6.00.

Take `CC(C)C[C@H](NC(=O)[C@H](Cc1ccccc1)NC(=O)c1cnccn1)B(O)O` [BORTEZOMIB]: the pIC50 was < 7.70.

A further experiment deals with EFE-184. Nature of the experiment: cells. The format is functional, cell-based. The note with it: Homo sapiens.
Description: SANGER: Inhibition of human EFE-184 cell growth in a cell viability assay.
Regarding `OC[C@H](Cc1ccccc1)Nc1nc(Oc2ccc3c(c2)CCC3)nc2c1ncn2Cc1ccc(-c2ccccc2)cc1`, the pIC50 is < 4.99.

Consider `C/C(=C\c1csc(C)n1)[C@@H]1C[C@@H]2O[C@]2(C)CCC[C@H](C)[C@H](O)[C@@H](C)C(=O)C(C)(C)[C@@H](O)CC(=O)O1` [PATUPILONE], for which the pIC50 is < 7.49.

A further experiment deals with TT. Kind of experiment: cells. The format is functional, cell-based. The conditions noted are these: Homo sapiens.
Description: SANGER: Inhibition of human TT cell growth in a cell viability assay.
Take `OC[C@H](Cc1ccccc1)Nc1nc(Oc2ccc3c(c2)CCC3)nc2c1ncn2Cc1ccc(-c2ccccc2)cc1`: the pIC50 was < 4.99.

Take `C/C(=C\c1csc(C)n1)[C@@H]1C[C@@H]2O[C@]2(C)CCC[C@H](C)[C@H](O)[C@@H](C)C(=O)C(C)(C)[C@@H](O)CC(=O)O1` [PATUPILONE]: the pIC50 is < 7.49.

For a further experiment, the system named is MES-SA. Nature of the experiment: cells. The format is functional, cell-based. The conditions noted are these: Homo sapiens.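 Note: growth inhibition of human MES-SA cells, read out with a cell viability assay.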
Description: SANGER: Inhibition of human MES-SA cell growth in a cell viability assay.
On to `OC[C@H](Cc1ccccc1)Nc1nc(Oc2ccc3c(c2)CCC3)nc2c1ncn2Cc1ccc(-c2ccccc2)cc1`, for which the pIC50 is < 4.99.

Turning to `C/C(=C\c1csc(C)n1)[C@@H]1C[C@@H]2O[C@]2(C)CCC[C@H](C)[C@H](O)[C@@H](C)C(=O)C(C)(C)[C@@H](O)CC(=O)O1` [PATUPILONE], the pIC50 was 8.70.

The next experiment concerns NCI-H2107. Nature of the experiment: SANGER: Inhibition of human NCI-H2107 cell growth in a cell viability assay.
Conditions: not given
The format is functional, cell-based.
With `CC(C)C[C@@H](C=O)NC(=O)[C@H](CC(C)C)NC(=O)[C@H](CC(C)C)NC(=O)OCc1ccccc1` [MG-132] (Cbz-Leu-Leu-Leu-aldehyde), the pIC50 was < 6.00.

The next experiment has as its system DV-90. Kind of experiment: cells. The conditions noted are these: Homo sapiens. It is filed as functional, cell-based.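 Note: Read-out is a viability assay, with IC50 reflecting the drop in DV-90 cell growth.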
Description: SANGER: Inhibition of human DV-90 cell growth in a cell viability assay.
As to `OC[C@H](Cc1ccccc1)Nc1nc(Oc2ccc3c(c2)CCC3)nc2c1ncn2Cc1ccc(-c2ccccc2)cc1`, the pIC50 is < 4.99.

In the case of `C/C(=C\c1csc(C)n1)[C@@H]1C[C@@H]2O[C@]2(C)CCC[C@H](C)[C@H](O)[C@@H](C)C(=O)C(C)(C)[C@@H](O)CC(=O)O1` [PATUPILONE], the pIC50 is 7.83.

The next experiment concerns Calu-1. Nature of the experiment: SANGER: Inhibition of human Calu-1 cell growth in a cell viability assay. The format is functional, cell-based.
Conditions: not given
For the molecule `OC[C@H](Cc1ccccc1)Nc1nc(Oc2ccc3c(c2)CCC3)nc2c1ncn2Cc1ccc(-c2ccccc2)cc1`, the pIC50 is 5.58.

As to `C/C(=C\c1csc(C)n1)[C@@H]1C[C@@H]2O[C@]2(C)CCC[C@H](C)[C@H](O)[C@@H](C)C(=O)C(C)(C)[C@@H](O)CC(=O)O1` [PATUPILONE], the pIC50 was 7.97.

Another experiment concerns Caov-3 cell line. Nature of the experiment: cells. The conditions noted are these: Homo sapiens. It is filed as functional, cell-based.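 Note: cell growth inhibition read out by a viability assay.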
Description: SANGER: Inhibition of human Caov-3 cell growth in a cell viability assay.
As to `OC[C@H](Cc1ccccc1)Nc1nc(Oc2ccc3c(c2)CCC3)nc2c1ncn2Cc1ccc(-c2ccccc2)cc1`, the pIC50 was < 4.99.

The molecule `C/C(=C\c1csc(C)n1)[C@@H]1C[C@@H]2O[C@]2(C)CCC[C@H](C)[C@H](O)[C@@H](C)C(=O)C(C)(C)[C@@H](O)CC(=O)O1` [PATUPILONE] gave a pIC50 of 7.86.

The next experiment relates to NCI-H128. Kind of experiment: SANGER: Inhibition of human NCI-H128 cell growth in a cell viability assay. The conditions noted are these: Homo sapiens, NCI-H128. The format is functional, cell-based.
For the molecule `C[C@@H](Oc1cc(-c2cnn(C3CCNCC3)c2)cnc1N)c1c(Cl)ccc(F)c1Cl` [CRIZOTINIB], the pIC50 is < 5.70.

`COc1cc(N2CCC(N3CCN(C)CC3)CC2)ccc1Nc1ncc(Cl)c(Nc2ccccc2S(=O)(=O)C(C)C)n1` [TAE-684]: the pIC50 is < 5.70.

Regarding `CC(C)C[C@H](NC(=O)[C@H](Cc1ccccc1)NC(=O)c1cnccn1)B(O)O` [BORTEZOMIB], the pIC50 was < 7.70.

The same experiment, now with this note: nci-h128.
`CC(C)C[C@@H](C=O)NC(=O)[C@H](CC(C)C)NC(=O)[C@H](CC(C)C)NC(=O)OCc1ccccc1` [MG-132] (Cbz-Leu-Leu-Leu-aldehyde): the pIC50 was < 6.00.

A further experiment has as its system MDA-MB-468. Kind of experiment: cells. The format is functional, cell-based. The conditions noted are these: Homo sapiens.
Description: SANGER: Inhibition of human MDA-MB-468 cell growth in a cell viability assay.
As for `OC[C@H](Cc1ccccc1)Nc1nc(Oc2ccc3c(c2)CCC3)nc2c1ncn2Cc1ccc(-c2ccccc2)cc1`, the pIC50 was < 4.99.

`C/C(=C\c1csc(C)n1)[C@@H]1C[C@@H]2O[C@]2(C)CCC[C@H](C)[C@H](O)[C@@H](C)C(=O)C(C)(C)[C@@H](O)CC(=O)O1` [PATUPILONE] gave a pIC50 of 8.76.
